Measured values taken from patent US20220218852A1, “NOVEL RADIOLABELLED CXCR4-TARGETING COMPOUNDS FOR DIAGNOSIS AND THERAPY” (PROVINCIAL HEALTH SERVICES AUTHORITY, priority 2019, published 2022).
Read-outs that look alike come from different tables or passages of the source. Positions of bridges follow the written chain, without caps; N, C: chain ends. Non-standard residues stand in square brackets, D forms with d. Residues, ends and D or L forms follow the SMILES beside them. Groups on a side chain read outwards from the residue. *: point of attachment. DOTA = O=C(O)CN1CCN(CC(=O)O)CCN(CC(=O)*)CCN(CC(=O)O)CC1; 2Nal = N[C@@H](Cc1ccc2ccccc2c1)C(=O)O; Lys(iPr) = CC(C)NCCCC[C@H](N)C(=O)O

What was measured:
[1] = Biodistribution in Daudi tumor-bearing mice; format: in vivo; conditions: male, NOD.Cg-Rag1^tm1MomII2rg^tm1Wjl/SzJ (NRG), mouse, iv, total radioactivity, Daudi xenograft bearing mice
Experimental: (§1) For Daudi, Z138, GRANTA519 and Jeko1 xenografts, male NOD.Cg-Rag1^tm1MomII2rg^tm1Wjl/SzJ (NRG) mice were subcutaneously inoculated on the left flank with 5×10^6 cells (100 μL; 1:1 ratio of PBS/Matrigel) and tumors were grown to a size of 200-500 mm^3. For PC-3 xenografts, male NOD.Cg-Rag1^tm1MomII2rg^tm1Wjl/SzJ (NRG) mice were subcutaneously inoculated on the left flank with 5×10^6 PC-3 cells (100 μL; 1:1 ratio of PBS/Matrigel) and tumors were grown to a size of 200-400 mm^3.
(§2) The mice were euthanized via CO2 inhalation while anesthetized with isoflurane. Tissues were harvested, washed in PBS, blotted dry, weighed, and measured on a Hidex AMG Automatic Gamma Counter.

[2] = tested on: Daudi Burkitt's lymphoma xenografts; experiment: Biodistribution in Daudi tumor-bearing mice; format: in vivo; conditions: Daudi xenograft bearing mice
Experimental: as §1, §2

[3] = 1 h blocked (7.5 μg LY2510924 i.p. 15 min before tracer)

tissue uptake at 1 h ([1]; Daudi tumour, 1 h, read-out: Biodistribution Daudi (tumour)): 9.07 %ID/g
tissue uptake at 1 h ([1]; Daudi tumour, 1 h blocked (7.5 μg LY2510924 i.p. 15 min before tracer), read-out: Biodistribution Daudi (tumour)): 0.59 %ID/g
tissue uptake at 2 h ([1]; Daudi tumour, read-out: Biodistribution Daudi (tumour)): 8.01 %ID/g
tissue uptake at 1 h ([1]; adrenals, 1 h, read-out: Biodistribution Adrenals): 0.35 %ID/g
tissue uptake at 1 h ([1]; adrenals, 1 h blocked (7.5 μg LY2510924 i.p. 15 min before tracer), read-out: Biodistribution Adrenals): 0.35 %ID/g
tissue uptake at 2 h ([1]; adrenals, read-out: Biodistribution Adrenals): 0.27 %ID/g
tissue uptake at 1 h ([1]; blood, 1 h, read-out: Biodistribution Blood): 0.42 %ID/g
tissue uptake at 1 h ([1]; blood, 1 h blocked (7.5 μg LY2510924 i.p. 15 min before tracer), read-out: Biodistribution Blood): 0.65 %ID/g
tissue uptake at 2 h ([1]; blood, read-out: Biodistribution Blood): 0.08 %ID/g
tissue uptake at 1 h ([1]; bone, 1 h, read-out: Biodistribution Bone): 0.17 %ID/g
tissue uptake at 1 h ([1]; bone, 1 h blocked (7.5 μg LY2510924 i.p. 15 min before tracer), read-out: Biodistribution Bone): 0.15 %ID/g
tissue uptake at 2 h ([1]; bone, read-out: Biodistribution Bone): 0.05 %ID/g
tissue uptake at 1 h ([1]; brain, 1 h, read-out: Biodistribution Brain): 0.01 %ID/g
tissue uptake at 1 h ([1]; brain, 1 h blocked (7.5 μg LY2510924 i.p. 15 min before tracer), read-out: Biodistribution Brain): 0.02 %ID/g
tissue uptake at 2 h ([1]; brain, read-out: Biodistribution Brain): 0.01 %ID/g
tissue uptake at 1 h ([1]; fat, 1 h, read-out: Biodistribution Fat): 0.06 %ID/g
tissue uptake at 1 h ([1]; fat, 1 h blocked (7.5 μg LY2510924 i.p. 15 min before tracer), read-out: Biodistribution Fat): 0.12 %ID/g
tissue uptake at 2 h ([1]; fat, read-out: Biodistribution Fat): 0.01 %ID/g
tissue uptake at 1 h ([1]; heart, 1 h, read-out: Biodistribution Heart): 0.15 %ID/g
tissue uptake at 1 h ([1]; heart, 1 h blocked (7.5 μg LY2510924 i.p. 15 min before tracer), read-out: Biodistribution Heart): 0.22 %ID/g
tissue uptake at 2 h ([1]; heart, read-out: Biodistribution Heart): 0.05 %ID/g
tissue uptake at 1 h ([1]; intestine, 1 h, read-out: Biodistribution Intestine): 0.21 %ID/g
tissue uptake at 1 h ([1]; intestine, 1 h blocked (7.5 μg LY2510924 i.p. 15 min before tracer), read-out: Biodistribution Intestine): 0.37 %ID/g
tissue uptake at 2 h ([1]; intestine, read-out: Biodistribution Intestine): 0.25 %ID/g
tissue uptake at 1 h ([1]; kidney, 1 h, read-out: Biodistribution Kidney): 3.58 %ID/g
tissue uptake at 1 h ([1]; kidney, 1 h blocked (7.5 μg LY2510924 i.p. 15 min before tracer), read-out: Biodistribution Kidney): 5.92 %ID/g
tissue uptake at 2 h ([1]; kidney, read-out: Biodistribution Kidney): 3.02 %ID/g
tissue uptake at 1 h ([1]; liver, 1 h, read-out: Biodistribution Liver): 0.58 %ID/g
tissue uptake at 1 h ([1]; liver, 1 h blocked (7.5 μg LY2510924 i.p. 15 min before tracer), read-out: Biodistribution Liver): 0.44 %ID/g
tissue uptake at 2 h ([1]; liver, read-out: Biodistribution Liver): 0.51 %ID/g
tissue uptake at 1 h ([1]; lung, 1 h, read-out: Biodistribution Lung): 0.51 %ID/g
tissue uptake at 1 h ([1]; lung, 1 h blocked (7.5 μg LY2510924 i.p. 15 min before tracer), read-out: Biodistribution Lung): 0.71 %ID/g
tissue uptake at 2 h ([1]; lung, read-out: Biodistribution Lung): 0.22 %ID/g
tissue uptake at 1 h ([1]; muscle, 1 h, read-out: Biodistribution Muscle): 0.08 %ID/g
tissue uptake at 1 h ([1]; muscle, 1 h blocked (7.5 μg LY2510924 i.p. 15 min before tracer), read-out: Biodistribution Muscle): 0.13 %ID/g
tissue uptake at 2 h ([1]; muscle, read-out: Biodistribution Muscle): 0.02 %ID/g
tissue uptake at 1 h ([1]; pancreas, 1 h, read-out: Biodistribution Pancreas): 0.11 %ID/g
tissue uptake at 1 h ([1]; pancreas, 1 h blocked (7.5 μg LY2510924 i.p. 15 min before tracer), read-out: Biodistribution Pancreas): 0.16 %ID/g
tissue uptake at 2 h ([1]; pancreas, read-out: Biodistribution Pancreas): 0.04 %ID/g
tissue uptake at 1 h ([1]; spleen, 1 h, read-out: Biodistribution Spleen): 0.49 %ID/g
tissue uptake at 1 h ([1]; spleen, 1 h blocked (7.5 μg LY2510924 i.p. 15 min before tracer), read-out: Biodistribution Spleen): 0.3 %ID/g
tissue uptake at 2 h ([1]; spleen, read-out: Biodistribution Spleen): 0.21 %ID/g
tissue uptake at 1 h ([1]; stomach, 1 h, read-out: Biodistribution Stomach): 0.05 %ID/g
tissue uptake at 1 h ([1]; stomach, 1 h blocked (7.5 μg LY2510924 i.p. 15 min before tracer), read-out: Biodistribution Stomach): 0.24 %ID/g
tissue uptake at 2 h ([1]; stomach, read-out: Biodistribution Stomach): 0.05 %ID/g
tissue uptake at 1 h ([1]; testes, 1 h, read-out: Biodistribution Testes): 0.15 %ID/g
tissue uptake at 1 h ([1]; testes, 1 h blocked (7.5 μg LY2510924 i.p. 15 min before tracer), read-out: Biodistribution Testes): 0.2 %ID/g
tissue uptake at 2 h ([1]; testes, read-out: Biodistribution Testes): 0.05 %ID/g
Ratio Tumour:Blood ([2]; 1 h): 22.78
Ratio Tumour:Bone ([2]; 1 h): 54.57
Ratio Tumour:Liver ([2]; 1 h): 15.68
Ratio Tumour:Lung ([2]; 1 h): 18.12
Ratio Tumour:Muscle ([2]; 1 h): 125.40
Ratio Tumour:Spleen ([2]; 1 h): 18.55
Ratio Tumour:Blood [2, 3]: 0.90
Ratio Tumour:Bone [2, 3]: 3.88
Ratio Tumour:Liver [2, 3]: 1.34
Ratio Tumour:Lung [2, 3]: 0.82
Ratio Tumour:Muscle [2, 3]: 4.49
Ratio Tumour:Spleen [2, 3]: 1.96
Ratio Tumour:Blood ([2]; 2 h): 113.17
Ratio Tumour:Bone ([2]; 2 h): 189.39
Ratio Tumour:Liver ([2]; 2 h): 15.57
Ratio Tumour:Lung ([2]; 2 h): 37.40
Ratio Tumour:Muscle ([2]; 2 h): 346.93
Ratio Tumour:Spleen ([2]; 2 h): 41.58
Structure (SMILES): CC(C)NCCCC[C@@H]1NC(=O)[C@H](Cc2ccc(O)cc2)NC(=O)[C@H](Cc2ccccc2)NC(=O)CC[C@H](C(=O)N[C@@H](CCCCNC(C)C)C(=O)N[C@@H](CCCCNC(=O)[C@@H](CCC(=O)O)NC(=O)[C@@H](CCC(=O)O)NC(=O)[C@@H](CCC(=O)O)NC(=O)CN2CCN(CC(=O)O)CCN(CC(=O)O)CCN(CC(=O)O)CC2)C(N)=O)NC(=O)CNC(=O)[C@H](Cc2ccc3ccccc3c2)NC(=O)[C@@H](CCCNC(=N)N)NC1=O [[^68Ga]Ga-BL20, metal not drawn] (FY[Lys(iPr)][dR][2Nal]G[dE][Lys(iPr)]K([dE-dE-dE-DOTA])-NH2; lactam N-7)
